Test results reported in PubChem BioAssay (NCI).
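Assay format: 96-well plates, 48-hour exposure. TGI marks complete inhibition of growth.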

Key:
Test in all cases: NCI tumour cell line growth inhibition, 48 h
786-0 renal = system: 786-0 renal
A498 renal = system: A498 renal
A549 NSCLC = system: A549 NSCLC
ACHN renal = system: ACHN renal
BT-549 breast = system: BT-549 breast
CAKI-1 renal = system: CAKI-1 renal
CCRF-CEM leukemia = system: CCRF-CEM leukemia
COLO 205 colon = system: COLO 205 colon
DU-145 prostate = system: DU-145 prostate
EKVX NSCLC = system: EKVX NSCLC
HCC-2998 colon = system: HCC-2998 colon
HCT-116 colon = system: HCT-116 colon
HCT-15 colon = system: HCT-15 colon
HL-60(TB) leukemia = system: HL-60(TB) leukemia
HOP-62 NSCLC = system: HOP-62 NSCLC
HOP-92 NSCLC = system: HOP-92 NSCLC
HS 578T breast = system: HS 578T breast
HT29 colon = system: HT29 colon
IGROV1 ovarian = system: IGROV1 ovarian
K-562 leukemia = system: K-562 leukemia
KM12 colon = system: KM12 colon
LOX IMVI melanoma = system: LOX IMVI melanoma
M14 melanoma = system: M14 melanoma
MALME-3M melanoma = system: MALME-3M melanoma
MCF7 breast = system: MCF7 breast
MDA-MB-231 breast = system: MDA-MB-231 breast
MDA-MB-435 = system: MDA-MB-435
MDA-N = system: MDA-N
MOLT-4 leukemia = system: MOLT-4 leukemia
NCI-H226 lung = system: NCI-H226 lung
NCI-H23 lung = system: NCI-H23 lung
NCI-H460 lung = system: NCI-H460 lung
NCI-H522 lung = system: NCI-H522 lung
NCI/ADR-RES ovarian = system: NCI/ADR-RES ovarian
OVCAR-3 ovarian = system: OVCAR-3 ovarian
OVCAR-4 ovarian = system: OVCAR-4 ovarian
OVCAR-5 ovarian = system: OVCAR-5 ovarian
OVCAR-8 ovarian = system: OVCAR-8 ovarian
PC-3 prostate = system: PC-3 prostate
RPMI-8226 leukemia = system: RPMI-8226 leukemia
RXF 393 renal = system: RXF 393 renal
SF-268 CNS = system: SF-268 CNS
SF-295 CNS = system: SF-295 CNS
SF-539 CNS = system: SF-539 CNS
SK-MEL-2 melanoma = system: SK-MEL-2 melanoma
SK-MEL-28 melanoma = system: SK-MEL-28 melanoma
SK-MEL-5 melanoma = system: SK-MEL-5 melanoma
SK-OV-3 ovarian = system: SK-OV-3 ovarian
SN12C renal = system: SN12C renal
SNB-19 CNS = system: SNB-19 CNS
SNB-75 CNS = system: SNB-75 CNS
SR leukemia = system: SR leukemia
SW-620 colon = system: SW-620 colon
T-47D breast = system: T-47D breast
TK-10 renal = system: TK-10 renal
U251 CNS = system: U251 CNS
UACC-257 melanoma = system: UACC-257 melanoma
UACC-62 melanoma = system: UACC-62 melanoma
UO-31 renal = system: UO-31 renal

Q: For `O=C1C=CC(=O)C(CNc2ccc(C(=O)OC34CC5CC(CC(C5)C3)C4)cc2)=C1`, which TGI (786-0 renal) is on record?
A: 23 µM

Q: And the TGI (A498 renal)?
A: 28 µM

Q: And the TGI (A549 NSCLC)?
A: 56.9 µM

Q: What about the TGI (ACHN renal) of the same molecule?
A: 19.1 µM

Q: What about the TGI (BT-549 breast) of the same molecule?
A: 15.7 µM

Q: What about the TGI (CAKI-1 renal) of the same molecule?
A: 2.71 µM

Q: And the TGI (CCRF-CEM leukemia)?
A: > 20.4 µM

Q: And the TGI (COLO 205 colon)?
A: 6.81 µM

Q: What about the TGI (DU-145 prostate) of the same molecule?
A: 47.6 µM

Q: What about the TGI (EKVX NSCLC) of the same molecule?
A: 25.3 µM

Q: What about the TGI (HCC-2998 colon) of the same molecule?
A: 32.4 µM

Q: What about the TGI (HCT-116 colon) of the same molecule?
A: 22.5 µM

Q: What about the TGI (HCT-15 colon) of the same molecule?
A: 12.3 µM

Q: And the TGI (HL-60(TB) leukemia)?
A: > 21.6 µM

Q: And the TGI (HOP-62 NSCLC)?
A: 17.1 µM

Q: And the TGI (HOP-92 NSCLC)?
A: 13.7 µM

Q: And the TGI (HS 578T breast)?
A: 10.9 µM

Q: And the TGI (HT29 colon)?
A: 24.6 µM

Q: And the TGI (IGROV1 ovarian)?
A: 4.86 µM

Q: What about the TGI (K-562 leukemia) of the same molecule?
A: > 49.3 µM

Q: And the TGI (KM12 colon)?
A: 22.5 µM

Q: And the TGI (LOX IMVI melanoma)?
A: 15.2 µM

Q: What about the TGI (M14 melanoma) of the same molecule?
A: 31.1 µM

Q: What about the TGI (MALME-3M melanoma) of the same molecule?
A: 21.4 µM

Q: What about the TGI (MCF7 breast) of the same molecule?
A: 27.5 µM

Q: What about the TGI (MDA-MB-231 breast) of the same molecule?
A: 36.2 µM

Q: What about the TGI (MDA-MB-435) of the same molecule?
A: 23 µM

Q: And the TGI (MDA-N)?
A: 19.2 µM

Q: And the TGI (MOLT-4 leukemia)?
A: 8.34 µM

Q: And the TGI (NCI-H226 lung)?
A: 4.47 µM

Q: What about the TGI (NCI-H23 lung) of the same molecule?
A: 25.4 µM

Q: What about the TGI (NCI-H460 lung) of the same molecule?
A: 32.9 µM

Q: And the TGI (NCI-H522 lung)?
A: 2.28 µM

Q: What about the TGI (NCI/ADR-RES ovarian) of the same molecule?
A: 44.1 µM

Q: What about the TGI (OVCAR-3 ovarian) of the same molecule?
A: 14.4 µM

Q: What about the TGI (OVCAR-4 ovarian) of the same molecule?
A: 12 µM

Q: What about the TGI (OVCAR-5 ovarian) of the same molecule?
A: 39.2 µM

Q: And the TGI (OVCAR-8 ovarian)?
A: 56 µM

Q: And the TGI (PC-3 prostate)?
A: 22 µM

Q: What about the TGI (RPMI-8226 leukemia) of the same molecule?
A: 7.01 µM

Q: And the TGI (RXF 393 renal)?
A: 4.51 µM

Q: What about the TGI (SF-268 CNS) of the same molecule?
A: 17.3 µM

Q: What about the TGI (SF-295 CNS) of the same molecule?
A: 39.2 µM

Q: What about the TGI (SF-539 CNS) of the same molecule?
A: 8.89 µM

Q: What about the TGI (SK-MEL-2 melanoma) of the same molecule?
A: 44.3 µM

Q: And the TGI (SK-MEL-28 melanoma)?
A: 17.8 µM

Q: And the TGI (SK-MEL-5 melanoma)?
A: 16.7 µM

Q: And the TGI (SK-OV-3 ovarian)?
A: > 57.4 µM

Q: What about the TGI (SN12C renal) of the same molecule?
A: 17.8 µM

Q: And the TGI (SNB-19 CNS)?
A: 27.8 µM

Q: What about the TGI (SNB-75 CNS) of the same molecule?
A: 18.1 µM

Q: And the TGI (SR leukemia)?
A: > 29.3 µM

Q: And the TGI (SW-620 colon)?
A: 27.4 µM

Q: And the TGI (T-47D breast)?
A: 6.88 µM

Q: And the TGI (TK-10 renal)?
A: 23.8 µM

Q: What about the TGI (U251 CNS) of the same molecule?
A: 16.4 µM

Q: What about the TGI (UACC-257 melanoma) of the same molecule?
A: 18.2 µM

Q: What about the TGI (UACC-62 melanoma) of the same molecule?
A: 16.5 µM

Q: What about the TGI (UO-31 renal) of the same molecule?
A: 16 µM
